≈ marks a conversion by molar mass, not a printed value.
Key:
[1] = test system: S. aureus ATCC 13709; assay: MIC, S. aureus ATCC 13709; type: cell-based; conditions: Alamar Blue read after overnight incubation at 35° C.; for MIC: Staphylococcus aureus, ATCC13709, S. aureus, read-out: MIC Sa; for MIC Sa: S. aureus
[2] = test system: E. coli ATCC 25922; assay: MIC, E. coli ATCC 25922; type: cell-based; conditions: Alamar Blue read after overnight incubation at 35° C.; for MIC: Escherichia coli, ATCC25922, E. coli, read-out: MIC Ec; for MIC Ec: E. coli

SMILES | MIC [1] [µg/mL] | MIC [2] [µg/mL] | MIC Sa [1] [µg/mL] | MIC Ec [2] [µg/mL]
CNc1cccc2c1[nH]c1nc(Sc3cnc4cccnc4c3)nc(N3CCN(C(=O)C4CCCO4)CC3)c12 (stereo not shown) [Compound 1.69] | ≤ 0.5 | 8 (≈ 14.8 µM) |  | 
CNc1cccc2c1[nH]c1nc(Sc3cnc4cccnc4c3)nc(N3CCC(C(O)c4cccs4)CC3)c12 (stereo not shown) [Compound 1.70] | 1 (≈ 1.81 µM) | > 32 |  | 
CNc1cccc2c1[nH]c1nc(Sc3cnc4ccc[n+]([O-])c4c3)nc(N3CC4C(N)C4C3)c12 (stereo not shown) [Compound 1.71] |  |  | ≤0.5 | ≤0.5
CNc1ccc(C)c2c1[nH]c1nc(Sc3cnc4ccc[n+]([O-])c4c3)nc(N3CC(N)C4(CC4)C3)c12 (stereo not shown) [Compound 1.72] | ≤ 0.5 | 1 (≈ 2.01 µM) |  | 
CNc1ccc(C)c2c1[nH]c1nc(Sc3cnc4ccc[n+]([O-])c4c3)nc(N3CC4C(N)C4C3)c12 (stereo not shown) [Compound 1.73] | ≤ 0.5 | 8 (≈ 16.5 µM) |  | 
CNc1cccc2c1[nH]c1nc(Sc3ccc4ccc(C(=O)O)nc4c3)nc(N3CC4C(N)C4C3)c12 (stereo not shown) [Compound 1.74] | 4 (≈ 8.04 µM) | > 64 |  | 
COc1cccc2c1[nH]c1nc(Sc3cnc4cccnc4c3)nc(N3CC4C(N)C4C3)c12 (stereo not shown) [Compound 1.75] | ≤ 0.5 | > 64 |  | 
COc1cccc2c1[nH]c1nc(Sc3cnc4nccnc4c3)nc(N3CC4C(N)C4C3)c12 (stereo not shown) [Compound 1.76] | 1 (≈ 2.19 µM) | > 64 |  | 
COc1cccc2c1[nH]c1nc(Sc3cnc4ccc[n+]([O-])c4c3)nc(N3CC(N)C3)c12 [Compound 1.77] | 2 (≈ 4.49 µM) | > 64 |  | 
COc1cccc2c1[nH]c1nc(Sc3cnc4ccc[n+]([O-])c4c3)nc(N3CC[C@@H](N)C3)c12 [Compound 1.78] | ≤ 0.5 | 64 (≈ 139 µM) |  | 
CNNc1cc(F)cc2c1[nH]c1nc(Oc3cnc(C)nc3)nc(N3CC4C(N)C4C3)c12 (stereo not shown) [Compound 2.1] |  |  | ≤0.5 | >16
CCc1cc(F)cc2c1[nH]c1nc(Oc3cncnc3)nc(N3CC4C(N)C4C3)c12 (stereo not shown) [Compound 2.2] |  |  | 2 (≈ 4.93 µM) | 4 (≈ 9.87 µM)
CCc1cc(F)cc2c1[nH]c1nc(Oc3cnc(C)nc3)nc(N3CC(N)C4(CC4)C3)c12 (stereo not shown) [Compound 2.3] |  |  | 1 (≈ 2.31 µM) | 16 (≈ 36.9 µM)
CCc1cc(F)cc2c1[nH]c1nc(Oc3cnc(C)nc3)nc(N3CC4CC(N)C4C3)c12 (stereo not shown) [Compound 2.4] |  |  | ≤0.5 | 1 (≈ 2.31 µM)
CCc1cc(F)cc2c1[nH]c1nc(Oc3cncnc3)nc(N3CC4CC(N)C4C3)c12 (stereo not shown) [Compound 2.5] |  |  | ≤0.5 | 2 (≈ 4.77 µM)
Cc1cc(F)cc2c1[nH]c1nc(Oc3cncnc3)nc(N3CC4C(N)C4C3)c12 (stereo not shown) [Compound 2.7] |  |  | 4 (≈ 10.2 µM) | >16
Nc1cccc2c1[nH]c1nc(Oc3cnc4cccnc4c3)nc(N3CC4C(N)C4C3)c12 (stereo not shown) [Compound 2.8] |  |  | 16 (≈ 37.7 µM) | >64
Cc1ncc(Oc2nc(N3CC(N)C4(CC4)C3)c3c(n2)[nH]c2c(N)cc(F)cc23)cn1 (stereo not shown) [Compound 2.9] |  |  | 16 (≈ 38.1 µM) | 16 (≈ 38.1 µM)
COc1cccc2c1[nH]c1nc(Oc3cncnc3)nc(N3CC[C@@H](N)C3)c12 [Compound 2.10] |  |  | 2 (≈ 5.3 µM) | 32 (≈ 84.8 µM)
COc1cccc2c1[nH]c1nc(Oc3cncnc3)nc(N3CCC(NC(C)=O)C3)c12 (stereo not shown) [Compound 2.11] |  |  | 4 (≈ 9.54 µM) | >64
